Results as given in ChEMBL document CHEMBL1201862, “PubChem BioAssay data set” (2004).
The source made the active and inactive calls.

How the values were obtained:
[1] = reduced cellular PGC1a acetyl-lysine signal – cell-based, cherry-picked samples, dose response (AID 720514); type: functional;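 note: potency may reflect raised or lowered acetylation signal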
[2] = biological target: T1, Eukaryotic translation initiation factor 2-alpha kinase 3 (Homo sapiens, UniProt Q9NZJ5); assay: Dose response cell-based high-throughput screening assay to measure PERK inhibition. [Related pubchem assays: 1416 ]; type: functional
T1 sequence (Q9NZJ5 whole entry): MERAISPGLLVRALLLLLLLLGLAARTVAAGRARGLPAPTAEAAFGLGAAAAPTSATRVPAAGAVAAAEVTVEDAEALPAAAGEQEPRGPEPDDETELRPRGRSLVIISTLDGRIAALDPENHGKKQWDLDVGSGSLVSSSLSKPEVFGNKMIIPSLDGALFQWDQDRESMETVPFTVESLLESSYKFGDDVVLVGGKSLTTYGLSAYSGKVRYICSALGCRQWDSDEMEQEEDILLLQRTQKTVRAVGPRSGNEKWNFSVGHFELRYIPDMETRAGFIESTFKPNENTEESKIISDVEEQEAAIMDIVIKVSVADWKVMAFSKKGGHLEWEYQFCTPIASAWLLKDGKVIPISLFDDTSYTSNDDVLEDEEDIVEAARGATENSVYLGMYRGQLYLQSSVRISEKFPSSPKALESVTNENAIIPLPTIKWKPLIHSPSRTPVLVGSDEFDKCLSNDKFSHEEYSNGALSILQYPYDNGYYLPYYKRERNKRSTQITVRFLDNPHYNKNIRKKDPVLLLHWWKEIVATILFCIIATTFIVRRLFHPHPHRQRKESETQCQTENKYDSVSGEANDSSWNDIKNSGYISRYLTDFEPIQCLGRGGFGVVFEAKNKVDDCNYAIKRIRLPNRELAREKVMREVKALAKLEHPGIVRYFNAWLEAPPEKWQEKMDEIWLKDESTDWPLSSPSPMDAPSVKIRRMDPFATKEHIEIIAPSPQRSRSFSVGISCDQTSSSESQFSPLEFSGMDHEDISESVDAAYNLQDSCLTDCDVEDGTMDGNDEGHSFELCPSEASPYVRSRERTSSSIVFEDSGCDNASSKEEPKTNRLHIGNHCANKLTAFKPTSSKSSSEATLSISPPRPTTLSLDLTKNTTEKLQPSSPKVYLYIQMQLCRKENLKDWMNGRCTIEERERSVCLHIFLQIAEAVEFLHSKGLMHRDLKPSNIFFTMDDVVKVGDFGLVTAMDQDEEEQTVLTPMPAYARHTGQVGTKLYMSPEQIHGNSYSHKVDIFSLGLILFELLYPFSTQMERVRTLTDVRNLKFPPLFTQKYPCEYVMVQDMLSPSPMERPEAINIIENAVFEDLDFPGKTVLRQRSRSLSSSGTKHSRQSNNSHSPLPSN

[3] = biological target: T1, Eukaryotic translation initiation factor 2-alpha kinase 3; assay: Counterscreen assay for PERK inhibitors: Dose response cell-based high throughput screening assay to measure inhibition of PERK at 6 hours. [Related pubchem assays: 1522, 1416 ]; type: functional
[4] = biological target: T2, NADPH oxidase 1 (Homo sapiens, UniProt Q9Y5S8); type: functional, cell-based;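 note: Cell-based assay with luminescence read-out, IC50 derived from inhibitor dose-response curves; intracellular ROS from endogenous NOX1 in intact HT29 colon cancer cells; potency of inhibitors that lower the ROS luminescence signal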
T2 sequence (Q9Y5S8 whole entry): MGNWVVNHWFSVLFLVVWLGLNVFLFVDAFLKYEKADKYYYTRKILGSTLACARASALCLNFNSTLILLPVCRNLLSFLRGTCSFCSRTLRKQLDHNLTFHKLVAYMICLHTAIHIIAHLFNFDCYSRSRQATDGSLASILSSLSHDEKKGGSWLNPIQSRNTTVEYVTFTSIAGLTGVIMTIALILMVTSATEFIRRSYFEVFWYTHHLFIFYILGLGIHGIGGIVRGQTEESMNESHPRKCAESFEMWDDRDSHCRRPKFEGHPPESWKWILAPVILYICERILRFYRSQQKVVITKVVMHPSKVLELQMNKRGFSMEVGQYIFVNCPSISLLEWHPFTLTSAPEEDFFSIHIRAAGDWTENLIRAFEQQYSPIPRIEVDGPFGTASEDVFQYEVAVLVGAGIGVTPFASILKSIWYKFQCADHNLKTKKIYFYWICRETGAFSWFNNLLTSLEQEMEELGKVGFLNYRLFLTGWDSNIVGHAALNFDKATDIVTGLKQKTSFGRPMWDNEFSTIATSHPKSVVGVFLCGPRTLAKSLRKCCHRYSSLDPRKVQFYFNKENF

[5] = biological target: DNA dC->dU-editing enzyme APOBEC-3A (Homo sapiens, UniProt P31941); assay: Dose Response confirmation of small molecule APOBEC3A DNA Deaminase Inhibitors via a fluorescence-based single-stranded DNA deaminase assay. [Related pubchem assays (depositor defined):AID493011, AID493024]; type: functional
Sequence of DNA dC->dU-editing enzyme APOBEC-3A (P31941 whole entry): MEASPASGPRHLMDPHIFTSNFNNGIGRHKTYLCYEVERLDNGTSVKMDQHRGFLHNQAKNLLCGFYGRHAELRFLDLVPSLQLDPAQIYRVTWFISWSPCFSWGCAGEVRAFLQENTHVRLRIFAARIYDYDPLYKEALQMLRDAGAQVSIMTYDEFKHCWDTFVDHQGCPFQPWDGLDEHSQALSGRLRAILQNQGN

[6] = biological target: DNA dC->dU-editing enzyme APOBEC-3G (Homo sapiens, UniProt Q9HC16); type: functional;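 note: Dose-response counterscreen measuring inhibition of APOBEC3G DNA deaminase activity, run while confirming APOBEC3A inhibitors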
Sequence of DNA dC->dU-editing enzyme APOBEC-3G (Q9HC16 whole entry, the tested form may be a part): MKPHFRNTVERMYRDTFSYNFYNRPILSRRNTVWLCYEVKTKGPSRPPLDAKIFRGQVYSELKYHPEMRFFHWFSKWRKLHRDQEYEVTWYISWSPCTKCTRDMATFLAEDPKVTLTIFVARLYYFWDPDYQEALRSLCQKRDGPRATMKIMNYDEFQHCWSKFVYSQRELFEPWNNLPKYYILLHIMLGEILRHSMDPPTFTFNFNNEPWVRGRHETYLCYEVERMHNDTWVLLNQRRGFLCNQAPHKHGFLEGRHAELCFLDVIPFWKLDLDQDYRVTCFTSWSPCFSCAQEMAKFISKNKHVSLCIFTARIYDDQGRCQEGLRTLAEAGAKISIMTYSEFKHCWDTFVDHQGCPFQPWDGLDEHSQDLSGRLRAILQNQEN

[7] = biological target: T3, Carboxy-terminal domain RNA polymerase II polypeptide A small phosphatase 1 (Homo sapiens, UniProt Q9GZU7); assay: CTDSP1 inhibitors, concentration-response, biochemical, absorbance readout, ultra-high-throughput screen actives (AID 540297); type: functional
T3 sequence (Q9GZU7 whole entry): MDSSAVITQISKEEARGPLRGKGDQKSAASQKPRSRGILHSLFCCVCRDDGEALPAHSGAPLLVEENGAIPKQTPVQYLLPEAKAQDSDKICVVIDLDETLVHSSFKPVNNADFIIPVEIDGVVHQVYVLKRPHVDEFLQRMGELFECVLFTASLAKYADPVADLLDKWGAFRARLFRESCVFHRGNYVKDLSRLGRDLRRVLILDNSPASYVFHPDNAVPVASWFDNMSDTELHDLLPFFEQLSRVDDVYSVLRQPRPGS

[8] = biological target: T4, Caspase-6 (Homo sapiens, UniProt P55212); assay: inhibition of CASP6 peptide cleavage – biochemical, VEID-R110 fluorescence, cherry-pick, dose response (AID 720632)
T4 sequence (P55212 whole entry): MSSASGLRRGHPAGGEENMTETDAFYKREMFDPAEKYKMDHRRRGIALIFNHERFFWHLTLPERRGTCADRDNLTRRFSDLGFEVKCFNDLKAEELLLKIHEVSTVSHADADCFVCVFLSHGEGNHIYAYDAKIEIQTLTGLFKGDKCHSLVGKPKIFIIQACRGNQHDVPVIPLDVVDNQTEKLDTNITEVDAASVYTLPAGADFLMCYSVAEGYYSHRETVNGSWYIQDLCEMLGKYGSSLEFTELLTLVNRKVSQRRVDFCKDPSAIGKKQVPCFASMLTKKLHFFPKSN

[9] = biological target: Cytochrome P450 2C19 (Homo sapiens, UniProt P33261); assay: qHTS Assay for Inhibitors and Substrates of Cytochrome P450 2C19. [Related pubchem assays: 410 ]; type: ADME; details: read-out: Potency
Sequence of Cytochrome P450 2C19 (P33261 whole entry): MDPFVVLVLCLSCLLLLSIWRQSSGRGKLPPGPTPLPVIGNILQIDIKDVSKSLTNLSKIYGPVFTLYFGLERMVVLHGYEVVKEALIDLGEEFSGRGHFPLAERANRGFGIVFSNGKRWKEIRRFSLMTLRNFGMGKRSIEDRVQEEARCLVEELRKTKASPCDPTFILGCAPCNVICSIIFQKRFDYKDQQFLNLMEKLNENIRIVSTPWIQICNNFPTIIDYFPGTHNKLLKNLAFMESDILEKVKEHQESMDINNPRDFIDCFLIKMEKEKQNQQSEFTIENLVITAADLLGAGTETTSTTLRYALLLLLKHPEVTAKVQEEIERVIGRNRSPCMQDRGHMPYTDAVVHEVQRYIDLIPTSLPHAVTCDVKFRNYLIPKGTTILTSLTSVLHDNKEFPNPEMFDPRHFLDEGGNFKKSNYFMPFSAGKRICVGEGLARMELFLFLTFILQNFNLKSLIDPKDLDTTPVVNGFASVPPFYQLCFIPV

[10] = biological target: T5, Alkaline phosphatase, tissue-nonspecific isozyme (Homo sapiens, UniProt P05186)
T5 sequence (P05186 whole entry): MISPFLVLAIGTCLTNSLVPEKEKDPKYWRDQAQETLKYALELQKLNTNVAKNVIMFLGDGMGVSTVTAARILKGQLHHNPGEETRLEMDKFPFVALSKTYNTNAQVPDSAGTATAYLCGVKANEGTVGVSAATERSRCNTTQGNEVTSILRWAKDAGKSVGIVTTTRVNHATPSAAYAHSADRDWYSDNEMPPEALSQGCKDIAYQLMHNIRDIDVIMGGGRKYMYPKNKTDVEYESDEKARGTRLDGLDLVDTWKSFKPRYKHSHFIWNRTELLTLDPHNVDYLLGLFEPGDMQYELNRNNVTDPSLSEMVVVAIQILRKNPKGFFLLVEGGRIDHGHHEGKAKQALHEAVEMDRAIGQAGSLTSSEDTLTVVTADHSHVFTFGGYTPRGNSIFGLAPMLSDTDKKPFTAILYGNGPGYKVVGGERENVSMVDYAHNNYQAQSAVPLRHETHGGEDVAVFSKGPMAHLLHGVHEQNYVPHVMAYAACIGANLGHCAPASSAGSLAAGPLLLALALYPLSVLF

[11] = microbe, parasite or virus in culture; type: functional; details: Mycobacterium tuberculosis
[12] = cells; type: functional
[13] = A Cell Based Secondary Assay To Explore Cytotoxicity of Compounds that Sensitize Mycobacterium Tuberculosis to Beta-Lactam Antibiotics.; type: functional
[14] = biological target: T6, Mucolipin-3 (Homo sapiens, UniProt Q8TDD5); assay: Dose response cell-based high-throughput screening assay for agonists of the transient receptor potential channel ML3 (TRPML3). [Related pubchem assays: 1526, 1424, 1448 ]; type: functional
T6 sequence (Q8TDD5 whole entry): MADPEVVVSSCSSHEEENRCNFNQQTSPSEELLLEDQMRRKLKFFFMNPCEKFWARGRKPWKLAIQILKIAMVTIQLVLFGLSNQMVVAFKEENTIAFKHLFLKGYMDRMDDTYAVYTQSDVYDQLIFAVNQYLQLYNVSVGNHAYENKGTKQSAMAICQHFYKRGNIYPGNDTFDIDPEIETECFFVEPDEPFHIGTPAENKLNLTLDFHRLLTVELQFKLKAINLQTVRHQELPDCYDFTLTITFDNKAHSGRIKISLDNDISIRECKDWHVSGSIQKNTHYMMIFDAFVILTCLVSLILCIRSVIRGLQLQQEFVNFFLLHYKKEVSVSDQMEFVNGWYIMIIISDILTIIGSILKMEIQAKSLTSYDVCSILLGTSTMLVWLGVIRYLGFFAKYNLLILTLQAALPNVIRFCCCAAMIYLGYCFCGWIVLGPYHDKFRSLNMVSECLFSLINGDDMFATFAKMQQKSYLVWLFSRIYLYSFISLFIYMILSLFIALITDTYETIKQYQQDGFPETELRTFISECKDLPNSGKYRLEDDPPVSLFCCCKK

[15] = biological target: Ion channel NompC (Danio rerio, UniProt Q7T1G6); assay: Fluorescence counterscreen assay for TRPML3 agonists: dose response cell-based high-throughput screening assay to identify agonists of the transient receptor potential channel N1 (TRPN1). [Related pubchem assays: 1526, 1424, 1448 ]; type: functional
Sequence of Ion channel NompC (Q7T1G6 whole entry): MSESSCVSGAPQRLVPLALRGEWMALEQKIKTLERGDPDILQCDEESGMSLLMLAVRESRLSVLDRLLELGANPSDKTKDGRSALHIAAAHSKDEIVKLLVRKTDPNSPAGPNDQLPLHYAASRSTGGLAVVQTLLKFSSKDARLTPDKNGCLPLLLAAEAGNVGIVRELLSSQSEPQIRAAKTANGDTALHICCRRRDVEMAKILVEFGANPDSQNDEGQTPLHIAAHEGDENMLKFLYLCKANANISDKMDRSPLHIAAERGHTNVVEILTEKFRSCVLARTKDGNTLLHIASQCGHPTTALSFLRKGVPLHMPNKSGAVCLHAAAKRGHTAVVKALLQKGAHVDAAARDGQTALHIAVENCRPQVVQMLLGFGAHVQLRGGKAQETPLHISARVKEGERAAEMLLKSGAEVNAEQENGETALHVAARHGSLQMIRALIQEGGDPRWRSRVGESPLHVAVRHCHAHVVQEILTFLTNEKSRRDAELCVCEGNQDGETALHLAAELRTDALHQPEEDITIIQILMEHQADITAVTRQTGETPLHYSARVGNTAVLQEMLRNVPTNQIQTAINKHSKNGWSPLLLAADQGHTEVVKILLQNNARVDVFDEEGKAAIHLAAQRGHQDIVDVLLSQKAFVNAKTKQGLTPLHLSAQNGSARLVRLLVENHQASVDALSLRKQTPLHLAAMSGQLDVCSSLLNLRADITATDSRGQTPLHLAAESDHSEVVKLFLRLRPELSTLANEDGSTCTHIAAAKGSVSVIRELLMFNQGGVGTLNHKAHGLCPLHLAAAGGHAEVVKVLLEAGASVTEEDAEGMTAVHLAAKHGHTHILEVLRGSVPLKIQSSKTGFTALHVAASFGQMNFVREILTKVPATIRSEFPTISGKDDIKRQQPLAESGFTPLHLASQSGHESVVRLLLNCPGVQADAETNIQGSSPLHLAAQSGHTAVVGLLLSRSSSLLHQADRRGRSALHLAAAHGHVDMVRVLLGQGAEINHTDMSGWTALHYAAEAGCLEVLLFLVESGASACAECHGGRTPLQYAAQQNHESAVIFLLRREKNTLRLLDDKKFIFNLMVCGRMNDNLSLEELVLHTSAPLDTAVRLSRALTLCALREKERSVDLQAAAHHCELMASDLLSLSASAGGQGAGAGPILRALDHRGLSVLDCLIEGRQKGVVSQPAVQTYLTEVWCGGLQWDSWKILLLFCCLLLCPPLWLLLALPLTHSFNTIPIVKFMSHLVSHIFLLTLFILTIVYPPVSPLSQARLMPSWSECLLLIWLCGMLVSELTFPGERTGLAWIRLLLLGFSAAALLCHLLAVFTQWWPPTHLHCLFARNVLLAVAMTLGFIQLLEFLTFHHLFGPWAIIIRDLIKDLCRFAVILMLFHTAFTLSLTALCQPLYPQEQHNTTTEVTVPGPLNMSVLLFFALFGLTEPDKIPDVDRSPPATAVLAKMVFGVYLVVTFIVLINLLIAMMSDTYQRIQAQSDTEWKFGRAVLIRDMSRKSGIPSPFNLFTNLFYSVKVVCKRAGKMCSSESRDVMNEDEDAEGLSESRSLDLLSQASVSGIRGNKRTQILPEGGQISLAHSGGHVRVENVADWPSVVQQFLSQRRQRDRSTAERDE

[16] = loss of viability in HepG2 cells – cell-based, CellTiter-Glo, cherry-picked, cytotoxicity control for Shn3 inhibitor project, dose response (AID 624134); type: functional
[17] = non-specific 3'UTR reporter inhibition in Clone20-Shn3RL – cell-based, Renilla luciferase, cherry-picked, counter-screen for Shn3 inhibitor project, dose response (AID 624133); type: functional

For `CC(=O)N1CCN(S(=O)(=O)c2cccc(C(=O)Nc3ccc4c(c3)OCO4)c2)CC1`, the AC50 [1] was 25.1 µM (active).

For `O=C(Cc1ncon1)Nc1ccc(F)c(F)c1F`, the EC50 [2] was > 55.7 µM (not active) and the EC50 [3] was > 55.7 µM (not active).

For `CCN(CC(=O)NCc1ccc(Cl)cc1)C(=O)CSCC(=O)Nc1ccc(C)cc1`, the AC50 [1] was 5.23 µM (active).

In the case of `CSc1ccc2c(c1)Nc1ccccc1S2`, the IC50 [4] is reported as 0.241 µM (active).

For `O=P(c1ccccc1)(c1ccccc1)c1cc(S(=O)(=O)O)ccc1O`, the IC50 [5] was 14.3 µM (active), the IC50 [6] was 45 µM (active) and the IC50 [7] was 9.24 µM (active). The AC50 [8] was 1.78 µM (active).

With `COC(=O)NC(c1ccccc1)C(C#N)C(=O)OC` (stereo not given) the AC50 [9] was 3.16 µM (inconclusive).

With `CCCCN1C(=O)C2(NNc3ccccc3O2)c2ccccc21` (stereo not given) the EC50 [10] was < 0.195 µM (not active), the CC50 [11] was > 40 µM (active) and the IC50 [12] was 36.5 µM (active).

In the case of `CSc1ncc(Cl)c(C(=O)Nc2cccc3ccccc23)n1`, the CC50 [13] is reported as > 40 µM (active).

With `CC(C)(C)NS(=O)(=O)c1cccc2nsnc12` the EC50 [2] was > 55.7 µM (not active) and the EC50 [3] was > 55.7 µM (not active).

With `CCOC(=O)C1CCN(C(=O)C(C)N(c2ccc(Oc3ccccc3)cc2)S(C)(=O)=O)CC1` (stereo not given) the EC50 [14] was 6.8 µM (active), the EC50 [15] was > 29.9 µM (not active) and the AC50 [16] was > 70 µM (inactive). For the same molecule, the AC50 [17] was 9.34 µM (active).
